Source: patent US20080261986A1, “PHARMACEUTICAL FORMULATIONS FOR IONTOPHORETIC DELIVERY OF AN ANTI-FUNGAL DRUG” (priority 2007, published 2008)
In brackets after ≈: the same amount, converted by molar mass. Several values for one entry are separate records, joined by “and”; a condition that tells them apart may be missing. Equal entries are not always repeated. Structures can show the parent of a compound that is named as a salt. Where two headings read alike, the source gives them in different places.

Experiments:
C. albicans = assay: Permeation across full thickness nail (ChubTur cell), receiver fluid assayed by C. albicans growth absorbance; format: cell-based; details: for Absorbance: replicates 1-3, full thickness human nail, C. albicans, 600 nm; for permeation across full thickness nail: all conditions tested (cathodal, anodal, passive)
[1] = Approximate visual solubility in receiver fluids; format: physicochemical
Description: The visual solubility of each receiver fluid shown in Table 3 below was initially tested for ketoconazole (BUFA B.V.) and ciclopirox (PCAS Finland Oy). Additional solubility testing was then conducted for terbinafine hydrochloride (QueMaCo Ltd.), amorolfine hydrochloride (Inter-Chemical Ltd.) and itraconazole EP (Shamrock, UK) and the results are shown in Table 3.
The solubility of terbinafine hydrochloride, fluconazole, itraconazole and amorolfine hydrochloride was determined in PBS and 5% Tween 80 and the results are summarized in Table 4.

[2] = format: in vitro ADME, human
Description: Prehydrated cadaver finger nails (approximately 0.5-0.7 mm thickness) or bovine hooves (approximately 0.25 mm thickness) were used for comparing different formulations as described in Examples 8-10. […] A nail adaptor was required to accommodate the curvature of the nail, but not for the hoof. The receptor compartments were filled with receiver fluid (3-5 ml water pH 3) and the drug formulations described above (0.5-2 mL) were placed in the donor compartment. […] Receptor levels of drug permeated were analyzed. Aliquots removed were replaced with an equal amount of buffer, and were assayed by HPLC to measure terbinafine HCl permeation through the nail or hoof. Control passive experiments were conducted in the same way except for the application of electric current. Nails or hooves were taken out of the FDC and drug extracted as described in Example 4. The drug loading levels in the nail or hoof were expressed as mg terbinafine HCl per g of nail or hoof. Data were expressed as means ±standard deviations. All experiments were performed in triplicate. […] The four formulations were evaluated for permeation of terbinafine HCl through the nail and loading in the nail as described in Example 8. Formulations containing benzoic acid improved permeation of terbinafine HCl through the nail over the base glycerin formulation without benzoic acid (FIG. 7A).

[3] = aqueous with cosolvent or surfactant or cyclodextrin, Approximate visual solubility

CCC(C)(C)c1ccc(CC(C)CN2C[C@@H](C)O[C@@H](C)C2)cc1 (stereo partly shown) [Amorolfine hydrochloride, amorolfine hydrochloride]
Absorbance (C. albicans; Anodal iontophoresis (1000 μA, 1 hr), listed as Amorolifine, hydrochloride): 0.54 and 0.44 and 0.40
Absorbance (C. albicans; Cathodal iontophoresis, controls: no C. albicans 0.037-0.039, no compound 0.126-0.160, listed as Amorolifine, hydrochloride): 0.50 and 0.54 and 0.49
Absorbance (C. albicans; Passive permeation, listed as Amorolifine, hydrochloride): 0.48 and 0.59 and 0.54
permeation across full thickness nail (C. albicans): did not show permeation of the nail under any conditions tested
solubility [1, 3]: 2050 to 2570 µg/mL

Cc1cc(C2CCCCC2)n(O)c(=O)c1 [Ciclopirox olamine, ciclopirox olamine]
Absorbance (C. albicans; Anodal iontophoresis (1000 μA, 1 hr)): 0.042 and 0.079
Absorbance (C. albicans; Cathodal iontophoresis, controls: no C. albicans 0.037-0.039, no compound 0.126-0.160): 0.048
Absorbance (C. albicans; Passive permeation): 0.157 and 0.129
permeation across full thickness nail (detection in receiver fluid) (C. albicans; both cathodal and anodal iontophoresis): detected in the receiver fluid
permeation across full thickness nail (detection in receiver fluid) (C. albicans; passive delivery): not with passive delivery

OC(Cn1cncn1)(Cn1cncn1)c1ccc(F)cc1F [Fluconazole, fluconazole]
solubility ([1]; aqueous with cosolvent or surfactant or cyclodextrin, PBS and 5% Tween 80 (Table 4), read-out: Approximate visual solubility): 1910 to 2170 µg/mL (≈ 6240 to 7090 µM)

CCC(C)n1ncn(-c2ccc(N3CCN(c4ccc(OCC5COC(Cn6cncn6)(c6ccc(Cl)cc6Cl)O5)cc4)CC3)cc2)c1=O (stereo not shown) [Itraconazole, itraconazole]
solubility [1, 3]: < 330 µg/mL

Cc1cc(C2CCCCC2)n(O)c(=O)c1 [ciclopirox]
Absorbance (C. albicans; Anodal iontophoresis (1000 μA, 1 hr), listed as Ciclopirox): 0.045 and 0.044 and 0.068
Absorbance (C. albicans; Cathodal iontophoresis, controls: no C. albicans 0.037-0.039, no compound 0.126-0.160, listed as Ciclopirox): 0.075 and 0.085 and 0.079
Absorbance (C. albicans; Passive permeation, listed as Ciclopirox): 0.075 and 0.046
permeation across full thickness nail (C. albicans): appeared to penetrate the nail regardless of whether current was applied
solubility in receiver fluid (in words) [1]: good solubility
solubility ([1]; aqueous buffer, Approximate visual solubility): < 388 µg/mL

CC(=O)N1CCN(c2ccc(OCC3COC(Cn4ccnc4)(c4ccc(Cl)cc4Cl)O3)cc2)CC1 (stereo not shown) [ketoconazole]
solubility in receiver fluid (in words) ([1]; PBS and 5% Tween 80): good solubility
solubility ([1]; aqueous buffer, 1% Propylene glycol in PBS, read-out: Approximate visual solubility): < 554 µg/mL
solubility ([1]; aqueous with cosolvent or surfactant or cyclodextrin, 20 mM B hydroxylpropyl cyclodextrin in PBS, read-out: Approximate visual solubility): < 1030 µg/mL
solubility ([1]; aqueous with cosolvent or surfactant or cyclodextrin, 200 mM B hydroxylpropyl cyclodextrin in PBS, read-out: Approximate visual solubility): 2120 to 2370 µg/mL (≈ 3990 to 4460 µM)
solubility ([1]; aqueous with cosolvent or surfactant or cyclodextrin, 0.5% Tween-80 in PBS, read-out: Approximate visual solubility): < 412 µg/mL
solubility ([1]; aqueous with cosolvent or surfactant or cyclodextrin, 1% Tween-80 in PBS, read-out: Approximate visual solubility): < 458 µg/mL
solubility ([1]; aqueous with cosolvent or surfactant or cyclodextrin, 2% Tween-80 in PBS, read-out: Approximate visual solubility): < 646 µg/mL
solubility ([1]; aqueous with cosolvent or surfactant or cyclodextrin, 5% Ethanol in PBS, read-out: Approximate visual solubility): < 910 µg/mL
solubility ([1]; aqueous with cosolvent or surfactant or cyclodextrin, 5% Propylene glycol in PBS, read-out: Approximate visual solubility): < 472 µg/mL
solubility ([1]; aqueous with cosolvent or surfactant or cyclodextrin, 5% Tween-80 in PBS, read-out: Approximate visual solubility): 1280 to 1530 µg/mL (≈ 2410 to 2880 µM)
solubility ([1]; aqueous with cosolvent or surfactant or cyclodextrin, 10% Ethanol in PBS, read-out: Approximate visual solubility): < 438 µg/mL
solubility ([1]; aqueous with cosolvent or surfactant or cyclodextrin, 20% Ethanol in PBS, read-out: Approximate visual solubility): < 398 µg/mL

PEG 400
permeation of terbinafine HCl through the nail (in words) [2]: further improved the permeation of terbinafine HCl through the nail
